Experimental data: publication PMC11415492 (Nature Communications, 2024)
Values joined by “and” are separate entries in the source; they are usually repeats but may differ in a detail not shown here. Equal entries are not always repeated. Structures can show the parent of a compound that is named as a salt. Where two headings read alike, the source gives them in different places.

Assay: Pharmacokinetic study in mice (plasma and brain), with estimated free drug concentrations
Format: in vivo, mouse
Conditions: for Brain Concentration (total) / Free Brain Concentration / Free Plasma Concentration / Plasma Concentration (total) / concentration at 0.083 h / concentration at 0.25 h / concentration at 0.5 h / concentration at 1 h / concentration at 2 h: mice, individual animals; for Brain Concentration (total) / Free Brain Concentration / Free Plasma Concentration / Plasma Concentration (total) / Total concentration / concentration at 0.083 h / concentration at 0.25 h / concentration at 0.5 h / concentration at 1 h / concentration at 2 h: 10 mg/kg s.c.; for Total concentration: Mice
[1] = Brain, male C57BL/6 mice, single s.c. 10 mg/kg
[2] = Plasma, male C57BL/6 mice, single s.c. 10 mg/kg
[3] = male, C57BL/6, mouse, brain, sc, 10 mg/kg, male C57BL/6 mice, s.c. 10 mg/kg

With `CCC1CC2CC3c4[nH]c5ccc(O)cc5c4CCN(C2)C13` (stereo not drawn) [Noribogaine, Noribogaine hydrochloride] the “Brain Concentration (total)” value (0.083 h, 10 mg/kg) was 6.61 µmol/L and 8.95 µmol/L, the “Free Brain Concentration” value (0.083 h, 10 mg/kg) was 0.78 µmol/L and 1.057 µmol/L and the “Free Plasma Concentration” value (0.083 h, 10 mg/kg) was 2258 nM and 2308 nM and 1083 nM. The “Plasma Concentration (total)” value (0.083 h, 10 mg/kg) was 4.83 µmol/L and 2.26 µmol/L and 4.72 µmol/L, the “Brain Concentration (total)” value (0.25 h, 10 mg/kg) was 14.1 µmol/L and 14.82 µmol/L and the “Free Brain Concentration” value (0.25 h, 10 mg/kg) was 1.664 µmol/L and 1.749 µmol/L. The “Free Plasma Concentration” value (0.25 h, 10 mg/kg) was 2314 nM and 3247 nM, the “Plasma Concentration (total)” value (0.25 h, 10 mg/kg) was 6.79 µmol/L and 6.1 µmol/L and the “Brain Concentration (total)” value (0.5 h, 10 mg/kg) was 18.56 µmol/L and 18.39 µmol/L. For the same molecule, the “Free Brain Concentration” value (0.5 h, 10 mg/kg) was 2.19 µmol/L and 2.17 µmol/L, the “Free Plasma Concentration” value (0.5 h, 10 mg/kg) was 2561 nM and 3671 nM and the “Plasma Concentration (total)” value (0.5 h, 10 mg/kg) was 7.68 µmol/L and 6.99 µmol/L. For the same molecule, the “Brain Concentration (total)” value (1 h, 10 mg/kg) was 11.3 µmol/L and 11.04 µmol/L, the “Free Brain Concentration” value (1 h, 10 mg/kg) was 1.334 µmol/L and 1.303 µmol/L and the “Free Plasma Concentration” value (1 h, 10 mg/kg) was 1924 nM and 1899 nM. For the same molecule, the “Plasma Concentration (total)” value (1 h, 10 mg/kg) was 3.97 µmol/L and 4.11 µmol/L, the “Brain Concentration (total)” value (2 h, 10 mg/kg) was 4.77 µmol/L and 6.38 µmol/L and the “Free Brain Concentration” value (2 h, 10 mg/kg) was 0.563 µmol/L and 0.752 µmol/L. For the same molecule, the “Free Plasma Concentration” value (2 h, 10 mg/kg) was 1638 nM and 938 nM, the “Plasma Concentration (total)” value (2 h, 10 mg/kg) was 1.96 µmol/L and 2.67 µmol/L and the “Brain Concentration (total)” value (4 h, 10 mg/kg) was 2.93 µmol/L and 1.78 µmol/L and 5.54 µmol/L. The “Free Brain Concentration” value (4 h, 10 mg/kg) was 0.346 µmol/L and 0.211 µmol/L and 0.654 µmol/L, the “Free Plasma Concentration” value (4 h, 10 mg/kg) was 1067 nM and 684 nM and 289 nM and the “Plasma Concentration (total)” value (4 h, 10 mg/kg) was 1.43 µmol/L and 0.61 µmol/L and 2.23 µmol/L. The “Brain Concentration (total)” value (8 h, 10 mg/kg) was 0.81 µmol/L and 0.72 µmol/L and 0.21 µmol/L, the “Free Brain Concentration” value (8 h, 10 mg/kg) was 0.095 µmol/L and 0.085 µmol/L and 0.024 µmol/L and the “Free Plasma Concentration” value (8 h, 10 mg/kg) was 47 nM and 125 nM and 114 nM. The “Plasma Concentration (total)” value (8 h, 10 mg/kg) was 0.26 µmol/L and 0.24 µmol/L and 0.1 µmol/L, the “Brain Concentration (total)” value (24 h, 10 mg/kg) was 0.03 µmol/L and 0 µmol/L (2×) and the “Free Brain Concentration” value (24 h, 10 mg/kg) was 0.004 µmol/L and 0 µmol/L (2×). The “Free Plasma Concentration” value (24 h, 10 mg/kg) was 2 nM and 4 nM and 0 nM, the “Plasma Concentration (total)” value (24 h, 10 mg/kg) was 0.01 µmol/L and 0 µmol/L (2×) and the Total concentration (Brain) was 17.18 µmol/L. It also gave a CLf [1] of 13.76 mL/min/kg, a T1/2 [1] of 1.71 h and a Total concentration (Plasma) of 6.68 µmol/L. For the same molecule, the CLf [2] was 31.87 mL/min/kg, the T1/2 [2] was 2.76 h and the CLf (brain, male C57BL/6 mice, s.c. 10 mg/kg) was 13.76 mL/min/kg. The concentration at 0.083 h (male, C57BL/6, mouse, brain, sc, 10 mg/kg, 0.083 h, read-out: Brain Concentration (total)) was 6750 nM, the concentration at 0.083 h (male, C57BL/6, mouse, brain, sc, 10 mg/kg, 0.083 h, read-out: Free Brain Concentration) was 797 nM and the concentration at 0.25 h (male, C57BL/6, mouse, brain, sc, 10 mg/kg, 0.25 h, read-out: Brain Concentration (total)) was 8040 nM. It also gave a concentration at 0.25 h (male, C57BL/6, mouse, brain, sc, 10 mg/kg, 0.25 h, read-out: Free Brain Concentration) of 949 nM, a concentration at 0.5 h (male, C57BL/6, mouse, brain, sc, 10 mg/kg, 0.5 h, read-out: Brain Concentration (total)) of 14600 nM and a concentration at 0.5 h (male, C57BL/6, mouse, brain, sc, 10 mg/kg, 0.5 h, read-out: Free Brain Concentration) of 1720 nM. The concentration at 1 h (male, C57BL/6, mouse, brain, sc, 10 mg/kg, 1 h, read-out: Brain Concentration (total)) was 11700 nM, the concentration at 1 h (male, C57BL/6, mouse, brain, sc, 10 mg/kg, 1 h, read-out: Free Brain Concentration) was 1380 nM and the concentration at 2 h (male, C57BL/6, mouse, brain, sc, 10 mg/kg, 2 h, read-out: Brain Concentration (total)) was 7820 nM. The concentration at 2 h (male, C57BL/6, mouse, brain, sc, 10 mg/kg, 2 h, read-out: Free Brain Concentration) was 923 nM, the Cmax (male, C57BL/6, mouse, brain, sc, 10 mg/kg, Brain (brain conc. as ng/g), male C57BL/6 mice, single s.c. 10 mg/kg) was 5090 ng/mL and the AUC(0-inf) [3] was 12100 ng·h/mL. It also gave an AUC(0-t) [3] of 11700 ng·h/mL, a Cmax [3] of 5090 ng/g and an AUC(0-inf) (male, C57BL/6, mouse, brain, sc, 10 mg/kg, male C57BL/6 mice, single s.c. 10 mg/kg) of 12100 ng·h/mL.
